Molecular target: T1, Phosphatidylinositol 4,5-bisphosphate 3-kinase catalytic subunit delta isoform (Homo sapiens, UniProt O00329)
T1 sequence (O00329 whole entry): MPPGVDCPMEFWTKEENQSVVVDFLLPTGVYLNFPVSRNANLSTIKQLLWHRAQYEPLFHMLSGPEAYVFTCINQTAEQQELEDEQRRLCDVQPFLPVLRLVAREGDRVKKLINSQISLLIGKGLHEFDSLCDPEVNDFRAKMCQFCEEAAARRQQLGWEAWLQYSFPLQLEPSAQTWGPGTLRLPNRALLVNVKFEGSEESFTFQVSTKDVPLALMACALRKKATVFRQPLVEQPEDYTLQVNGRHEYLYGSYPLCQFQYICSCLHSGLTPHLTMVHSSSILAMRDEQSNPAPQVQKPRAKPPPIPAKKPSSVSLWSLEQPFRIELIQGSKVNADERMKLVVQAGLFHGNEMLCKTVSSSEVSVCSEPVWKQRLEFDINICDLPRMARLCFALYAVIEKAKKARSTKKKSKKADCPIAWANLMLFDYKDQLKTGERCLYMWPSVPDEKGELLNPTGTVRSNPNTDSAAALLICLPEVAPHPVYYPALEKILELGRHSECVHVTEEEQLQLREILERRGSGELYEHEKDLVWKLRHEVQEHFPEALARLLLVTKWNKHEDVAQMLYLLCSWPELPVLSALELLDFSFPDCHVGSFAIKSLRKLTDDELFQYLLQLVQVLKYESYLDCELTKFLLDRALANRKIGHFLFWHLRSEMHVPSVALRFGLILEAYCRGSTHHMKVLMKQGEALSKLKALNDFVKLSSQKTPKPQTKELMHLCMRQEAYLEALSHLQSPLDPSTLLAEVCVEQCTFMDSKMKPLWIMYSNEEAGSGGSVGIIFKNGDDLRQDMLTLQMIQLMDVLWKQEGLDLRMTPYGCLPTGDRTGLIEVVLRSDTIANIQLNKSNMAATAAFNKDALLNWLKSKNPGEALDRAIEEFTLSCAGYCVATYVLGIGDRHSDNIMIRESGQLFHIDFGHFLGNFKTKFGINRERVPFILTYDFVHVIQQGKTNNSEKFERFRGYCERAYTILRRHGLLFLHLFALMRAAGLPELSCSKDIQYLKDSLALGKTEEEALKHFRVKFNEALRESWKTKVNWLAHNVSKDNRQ
Experiment: A2 PI3Kdelta Scintillation Proximity Assay
Conditions: pH 6.7; 25 °C
Procedure: PI3K isoforms α, β, δ and γ are purchased from Millipore (Bedford, Mass.). […] Inhibitors are first diluted serially in DMSO and added to the plate wells before the addition of other reaction components. The final concentration of DMSO in the assay is 0.5%. The PI3K assays are carried out at room temperature in 20 mM MOPS, pH 6.7, 10 mM MgCl2, 5 mM DTT and CHAPS 0.03%. The reaction mixture is prepared containing 50 μM PIP2, kinase and varying concentration of inhibitors. […] Reactions are incubated for 180 minutes and terminated by the addition of 100 μL of 1 M potassium phosphate pH 8.0, 30 mM EDTA quench buffer. A 100 μL aliquot of the reaction solution are then transferred to 96-well Millipore MultiScreen IP 0.45 μm PVDF filter plate (The filter plate is prewetted with 200 μL 100% ethanol, distilled water, and 1 M potassium phosphate pH 8.0, respectively). […] After drying by aspiration and blotting, the plate is air dried in an incubator at 37° C. overnight. Packard TopCount adapter (Millipore) is then attached to the plate followed with addition of 120 μL Microscint 20 scintillation cocktail (Perkin Elmer) in each well. After the plate sealing, the radioactivity of the product is determined by scintillation counting on Topcount (Perkin-Elmer). […]

IC50 [nM] | Compound
< 10 | CCOc1c(C(C)n2nc(C)c3c(N)ncnc32)cc(Cl)c(C#N)c1C1CN(C(C)(C)C(=O)N(C)C)C1 (single isomer, unassigned) [US9707233, 241]
< 10 | COc1c(C(C)n2nc(C)c3c(N)ncnc32)cc(Cl)c(C)c1C1CN(CC(F)F)C1 (single isomer, unassigned) [US9707233, 112]

Reference: BindingDB's records for patent US9707233 (Incyte Holdings Corporation, 2017)
